Measurements: US10806726B2, “Methods of using indazole-3-carb oxamides and their use as Wnt/B-catenin signaling pathway inhibitors” (Samumed, LLC, priority 2016, dated 2020)

Legend:
[1] = test system: IL6 production in THP-1 cells; assay: Cytokine Production Assay, LPS-induced IL6 in THP-1 cells; format: cell-based; settings: Homo sapiens; THP-1, LPS 500 ng/ml 22 hours, 2 independent assays; read-out: average EC50, inhibition of IL6 production
Procedure: (§1) THP-1 cells were cultured in basal media with 1% FBS for 24 hours before the start of the assay. THP-1 cells were plated at 6×10e^4 cells/well and treated with DMSO (vehicle control) or compound 175 at 10 μM highest test concentration and 2 to 3.5-fold serial dilutions up to 8 concentrations (10, 3.5, 1, 0.5, 0.1, 0.035, 0.01, 0.005 μM). For the TNFα assay, 50 ng/mL of LPS was added to the wells after 2 hours to induce cytokine production, and cells were incubated for 5 hours at 37° C. For the IL6 assay, 500 ng/ml of LPS was added after 2 hours and cells were incubated for 22 hours at 37° C. Plates were spun in a centrifuge for 1 minute at 10,000 rpm and supernatants were collected for ELISA. Supernatants were diluted 1:1 for the TNFα assay and 1:4 for the IL6 assay using the assay medium. ELISA was performed using Human TNF-α ELISA MAX™ Deluxe (Catalog #430204, Biolegend, San Diego, Calif.) and Human IL-6 ELISA MAX™ Deluxe (Catalog #430504, Biolegend, San Diego, Calif.) kits. […] Following several washes to remove unbound avidin-HRP, the TMB substrate was added and the plates were read on the Cytation 3 plate reader (Biotek Inc., Winooski, Vt.) at an absorbance of 450 nm with correction at 570 nm. […] Inhibition profile and EC50 was calculated using Prism 5 (GraphPad Software Inc, La Jolla, Calif., USA). […]

[2] = test system: TNFα production in THP-1 cells; assay: Cytokine Production Assay, LPS-induced TNFα in THP-1 cells; format: cell-based; settings: Homo sapiens; THP-1, LPS 50 ng/mL 5 hours, 2 independent assays; read-out: average EC50, inhibition of TNFα production
Procedure: as §1

KC/GRO in plasma = assay: Rat Tendinopathy Model (2), plasma biomarker KC/GRO; format: in vivo
Procedure: Fifty (50 μl) of Collagenase Type IA (10 mg/ml in PBS, pH 7.4, approximately 469 units/mg) (Catalog # C5138, Sigma, St. Louis, Mo.) was injected into the Achilles tendon of both ankles near the osteotendinous junction of male Sprague Dawley CD® IGS rats (CRL, Inc.), using insulin syringes with 28.5 G needle.
Rats were divided into 6 groups, with 6 animals per group except 8 animals in Group 2: Group 1 (sham injection), Group 2 (Collagenase-Vehicle with 0.5% Phx), Group 3 (Collagenase-compound 175 3 mg/mL with 0.5% BA), Group 4 (Collagenase-compound 175 10 mg/mL with 0.5% BA), Group 5 (Collagenase-compound 175 3 mg/mL with 0.5% Phx) and Group 6 (Collagenase-compound 175 10 mg/mL with 0.5% Phx). […] All rats were periodically observed for any pain, illnesses or abnormalities. At various time points, blood was collected for plasma in lithium heparin coated tubes by saphenous vein bleeding. For histology, rats were euthanized using isoflurane, tendons were isolated (n=8 tendons/group), fixed in 10% buffered formalin (Catalog # SF93-4, Fisher, Pittsburgh, Pa.) and H & E histology staining was performed at a secondary site (Pacific Pathology, San Diego, Calif.). For biochemical analysis, tendons were isolated (n=4 tendons/group), flash frozen in liquid nitrogen and then stored at −80° C. for subsequent biochemical analysis (not reported). Additionally, one (1) day after collagenase injection, 4 tendons were collected from Group 2 (vehicle) to observe the induction of inflammation (not reported).
Following manufacturer's instructions, KC/GRO plasma levels were determined using the KC/GRO Immunoassay kit (Cat #900-K57, Peprotech, Rocky Hill, N.J.). Briefly, 96-well plates were coated with the anti-rat KC/GRO capture antibody overnight and washed to remove excess antibody. Plasma samples were incubated in the coated plates for 2 hours at room temperature. Following washes to remove unbound proteins, biotinylated anti-rat KC/GRO detection antibody was added and incubated for 30 mins at room temperature. Following washes to remove unbound excess antibody, avidin-HRP was added and incubated for 30 mins at room temperature. Following washes to remove unbound avidin-HRP, the ABTS substrate was added and the plates were read on the Cytation 3 plate reader (Biotek Inc., Winooski, Vt.) at an absorbance of 525 nm with correction at 450 nm. All samples were processed in triplicate.

EC50 [1]: 356 to 629 nM | EC50 [2]: 342 to 547 nM
Structure (SMILES): COc1ccc(NC(=O)c2n[nH]c3ccc(-c4cncc(CN5CCCCC5)c4)cc23)cn1 [compound 175, N-(6-Methoxypyridin-3-yl)-5-(5-(piperidin-1-ylmethyl)pyridin-3-yl)-1H-indazole-3-carboxamide]
plasma KC/GRO vs vehicle (KC/GRO in plasma; 3 and 10 mg/mL, with either BA or Phx as preservative): significantly decreased the levels of KC/GRO in plasma | Plasma KC/GRO Concentration (KC/GRO in plasma; Day 0, Group 3, 3 mg/mL, 0.5% BA): 78.2 ± 14.9 pg/mL | Plasma KC/GRO Concentration (KC/GRO in plasma; Day 0, Group 4, 10 mg/mL, 0.5% BA): 224 ± 40.1 pg/mL | Plasma KC/GRO Concentration (KC/GRO in plasma; Day 0, Group 5, 3 mg/mL, 0.5% Phx): 112 ± 74.0 pg/mL | Plasma KC/GRO Concentration (KC/GRO in plasma; Day 0, Group 6, 10 mg/mL, 0.5% Phx): 254 ± 60.6 pg/mL | Plasma KC/GRO Concentration (KC/GRO in plasma; Day 1, Group 3, 3 mg/mL, 0.5% BA): 472 ± 47.2 pg/mL | Plasma KC/GRO Concentration (KC/GRO in plasma; Day 1, Group 4, 10 mg/mL, 0.5% BA): 360 ± 31.4 pg/mL | Plasma KC/GRO Concentration (KC/GRO in plasma; Day 1, Group 5, 3 mg/mL, 0.5% Phx): 416 ± 47.9 pg/mL | Plasma KC/GRO Concentration (KC/GRO in plasma; Day 1, Group 6, 10 mg/mL, 0.5% Phx): 375 ± 44.4 pg/mL | Plasma KC/GRO Concentration (KC/GRO in plasma; Day 3, Group 3, 3 mg/mL, 0.5% BA): 449 ± 53.9 pg/mL | Plasma KC/GRO Concentration (KC/GRO in plasma; Day 3, Group 4, 10 mg/mL, 0.5% BA): 454 ± 52.2 pg/mL | Plasma KC/GRO Concentration (KC/GRO in plasma; Day 3, Group 5, 3 mg/mL, 0.5% Phx): 374 ± 89.1 pg/mL | Plasma KC/GRO Concentration (KC/GRO in plasma; Day 3, Group 6, 10 mg/mL, 0.5% Phx): 405 ± 42.1 pg/mL | Plasma KC/GRO Concentration (KC/GRO in plasma; Day 5, Group 3, 3 mg/mL, 0.5% BA): 561 ± 97.2 pg/mL | Plasma KC/GRO Concentration (KC/GRO in plasma; Day 5, Group 4, 10 mg/mL, 0.5% BA): 327 ± 49.9 pg/mL | Plasma KC/GRO Concentration (KC/GRO in plasma; Day 5, Group 5, 3 mg/mL, 0.5% Phx): 431 ± 24.5 pg/mL | Plasma KC/GRO Concentration (KC/GRO in plasma; Day 5, Group 6, 10 mg/mL, 0.5% Phx): 328 ± 37.1 pg/mL | Plasma KC/GRO Concentration (KC/GRO in plasma; Day 7, Group 3, 3 mg/mL, 0.5% BA): 445 ± 54.5 pg/mL | Plasma KC/GRO Concentration (KC/GRO in plasma; Day 7, Group 4, 10 mg/mL, 0.5% BA): 396 ± 92.4 pg/mL | Plasma KC/GRO Concentration (KC/GRO in plasma; Day 7, Group 5, 3 mg/mL, 0.5% Phx): 422 ± 47.9 pg/mL | Plasma KC/GRO Concentration (KC/GRO in plasma; Day 7, Group 6, 10 mg/mL, 0.5% Phx): 299 ± 53.9 pg/mL | Plasma KC/GRO Concentration (KC/GRO in plasma; Day 14, Group 3, 3 mg/mL, 0.5% BA): 319 ± 57.7 pg/mL | Plasma KC/GRO Concentration (KC/GRO in plasma; Day 14, Group 4, 10 mg/mL, 0.5% BA): 343 ± 59.4 pg/mL | Plasma KC/GRO Concentration (KC/GRO in plasma; Day 14, Group 5, 3 mg/mL, 0.5% Phx): 505 ± 41.0 pg/mL | Plasma KC/GRO Concentration (KC/GRO in plasma; Day 14, Group 6, 10 mg/mL, 0.5% Phx): 265 ± 20.8 pg/mL | Plasma KC/GRO Concentration (KC/GRO in plasma; Day 21, Group 3, 3 mg/mL, 0.5% BA): 150 ± 53.8 pg/mL | Plasma KC/GRO Concentration (KC/GRO in plasma; Day 21, Group 4, 10 mg/mL, 0.5% BA): 350 ± 25.6 pg/mL | Plasma KC/GRO Concentration (KC/GRO in plasma; Day 21, Group 5, 3 mg/mL, 0.5% Phx): 226 ± 37.3 pg/mL | Plasma KC/GRO Concentration (KC/GRO in plasma; Day 21, Group 6, 10 mg/mL, 0.5% Phx): 342 ± 39.7 pg/mL | plasma KC/GRO levels, range (KC/GRO in plasma; Days 5-21, all four treated groups): 150 to 561 pg/mL
